Measurements taken from PubChem BioAssay (NCI).
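These data come from cells grown in 96-well plates and exposed to compound for 48 hours at five concentrations. TGI denotes the concentration required for complete inhibition of growth.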

Experiments:
Test in all cases: growth of human tumour cells (NCI), 48 h
SK-MEL-5 melanoma = tested on: SK-MEL-5 melanoma
KM12 colon = tested on: KM12 colon
PC-3 prostate = tested on: PC-3 prostate
SF-268 CNS = tested on: SF-268 CNS
UACC-257 melanoma = tested on: UACC-257 melanoma
SK-OV-3 ovarian = tested on: SK-OV-3 ovarian
DU-145 prostate = tested on: DU-145 prostate
A549 NSCLC = tested on: A549 NSCLC
OVCAR-4 ovarian = tested on: OVCAR-4 ovarian
MDA-MB-231 breast = tested on: MDA-MB-231 breast
SK-MEL-2 melanoma = tested on: SK-MEL-2 melanoma
OVCAR-5 ovarian = tested on: OVCAR-5 ovarian
HS 578T breast = tested on: HS 578T breast
ACHN renal = tested on: ACHN renal
NCI-H226 lung = tested on: NCI-H226 lung
M14 melanoma = tested on: M14 melanoma
UACC-62 melanoma = tested on: UACC-62 melanoma
NCI/ADR-RES ovarian = tested on: NCI/ADR-RES ovarian
EKVX NSCLC = tested on: EKVX NSCLC
HL-60(TB) leukemia = tested on: HL-60(TB) leukemia

Structure (SMILES) | TGI (SK-MEL-5 melanoma) | TGI (KM12 colon) | TGI (PC-3 prostate) | TGI (SF-268 CNS) | TGI (UACC-257 melanoma) | TGI (SK-OV-3 ovarian) | TGI (DU-145 prostate) | TGI (A549 NSCLC) | TGI (OVCAR-4 ovarian) | TGI (MDA-MB-231 breast) | TGI (SK-MEL-2 melanoma) | TGI (OVCAR-5 ovarian) | TGI (HS 578T breast) | TGI (ACHN renal) | TGI (NCI-H226 lung) | TGI (M14 melanoma) | TGI (UACC-62 melanoma) | TGI (NCI/ADR-RES ovarian) | TGI (EKVX NSCLC) | TGI (HL-60(TB) leukemia)
CC(=O)N1N=C(c2ccc3ccccc3c2O)CC1C(=O)c1ccco1 (stereo not given) | > 100 µM | 44.8 µM | > 100 µM | > 100 µM | > 100 µM | > 100 µM | > 100 µM | > 100 µM | > 100 µM | > 100 µM | 52.8 µM | > 100 µM | > 100 µM | > 100 µM | > 100 µM | 57.7 µM | 62.6 µM | 57.8 µM | – | –
CN(NC(=O)c1cccs1)C1=NCCCN1 | > 100 µM | > 100 µM | > 100 µM | > 100 µM | > 100 µM | > 100 µM | – | > 100 µM | > 100 µM | > 100 µM | > 100 µM | > 100 µM | > 100 µM | > 100 µM | > 100 µM | > 100 µM | > 100 µM | > 100 µM | > 100 µM | > 100 µM
O=C(Cc1ccccc1)NN1C(=O)/C(=C\c2cccc(O)c2)SC1=Nc1ccccc1 | > 100 µM | > 100 µM | – | > 100 µM | > 100 µM | > 100 µM | > 100 µM | > 100 µM | > 100 µM | > 100 µM | > 100 µM | > 100 µM | > 100 µM | > 100 µM | > 100 µM | > 100 µM | > 100 µM | > 100 µM | > 100 µM | –
